From the Kinase Knowledgebase extract (Sharma et al. 2016) come the findings set out here.

Bounds are passed on as bounds.

For assay [1], the target named is EGFR (human), P00533 [WT].
The target in assay [2] is EGFR (human), P00533 [Inhibition of EGFR(L858RT/790M) Kinase Activity].
In another assay the target is EGFR (human) (UniProt P00533). The note with it: hcc827.

Usually IC50 stands for the concentration at which inhibition is half-maximal. The low end stands for inhibition by little substance, the high end for a need for much substance.

Chain of EGFR (human), P00533 [WT] (P00533 whole entry, looked up): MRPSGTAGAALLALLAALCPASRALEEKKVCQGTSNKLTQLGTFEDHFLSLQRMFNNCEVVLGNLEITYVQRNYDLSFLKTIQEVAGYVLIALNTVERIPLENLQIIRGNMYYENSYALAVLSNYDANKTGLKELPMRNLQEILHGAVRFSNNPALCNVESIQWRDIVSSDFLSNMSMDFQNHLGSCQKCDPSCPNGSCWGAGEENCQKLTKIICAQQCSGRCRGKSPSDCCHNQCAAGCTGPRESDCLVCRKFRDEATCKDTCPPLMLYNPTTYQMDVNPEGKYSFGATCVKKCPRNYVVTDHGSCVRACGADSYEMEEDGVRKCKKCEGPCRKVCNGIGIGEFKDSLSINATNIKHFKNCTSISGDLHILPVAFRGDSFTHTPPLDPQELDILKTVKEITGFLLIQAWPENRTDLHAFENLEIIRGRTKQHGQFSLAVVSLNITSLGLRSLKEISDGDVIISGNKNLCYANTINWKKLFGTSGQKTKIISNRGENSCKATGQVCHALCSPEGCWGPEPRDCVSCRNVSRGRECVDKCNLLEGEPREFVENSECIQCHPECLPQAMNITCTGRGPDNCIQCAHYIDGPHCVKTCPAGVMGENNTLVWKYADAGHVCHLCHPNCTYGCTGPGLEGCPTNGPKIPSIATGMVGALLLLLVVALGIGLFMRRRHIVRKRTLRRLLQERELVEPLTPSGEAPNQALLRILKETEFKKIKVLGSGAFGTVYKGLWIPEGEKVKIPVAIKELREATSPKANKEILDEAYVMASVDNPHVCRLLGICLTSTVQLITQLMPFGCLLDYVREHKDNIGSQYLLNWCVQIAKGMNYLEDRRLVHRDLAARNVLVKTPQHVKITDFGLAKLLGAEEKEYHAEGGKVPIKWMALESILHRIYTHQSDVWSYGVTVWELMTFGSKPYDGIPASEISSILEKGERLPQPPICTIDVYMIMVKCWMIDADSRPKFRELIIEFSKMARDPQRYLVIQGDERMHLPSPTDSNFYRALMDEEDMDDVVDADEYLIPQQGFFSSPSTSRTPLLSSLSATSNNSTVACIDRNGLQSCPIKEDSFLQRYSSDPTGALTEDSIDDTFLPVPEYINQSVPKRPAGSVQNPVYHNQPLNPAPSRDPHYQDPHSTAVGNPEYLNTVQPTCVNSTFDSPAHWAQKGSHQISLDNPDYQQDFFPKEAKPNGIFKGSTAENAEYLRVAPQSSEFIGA
Chain of EGFR (human) (P00533 whole entry, looked up): as above
Chain of EGFR (human), P00533 [Inhibition of EGFR(L858RT/790M) Kinase Activity] (P00533 whole entry, looked up, change not shown): as the sequence (P00533 whole entry, looked up) above

Consider `CC(=O)OC[C@@H](Nc1ncnc2sc3c(c12)CCN(C(=O)/C=C/CN(C)C)C3)c1ccccc1`, for which, in assay [1], the IC50 was less than 59 nM.

For the molecule `CN(C)C/C=C/C(=O)N1CCc2c(sc3ncnc(N[C@H](COCc4ccccc4)c4ccccc4)c23)C1`, the IC50 in assay [1] was less than 59 nM; in assay [2] it was 500 to 2500 nM; against EGFR (human) it was 1 to 99 nM. `CN(C)C/C=C/C(=O)N1CCc2c(sc3ncnc(N[C@H](COCc4ccccc4F)c4ccccc4)c23)C1`: the results for the IC50 (in assay [1]; in assay [2]; against EGFR (human)) were less than 59 nM, 500 to 2500 nM and 1 to 99 nM, respectively.

Take `COC(=O)[C@@H](Nc1ncnc2oc(-c3ccccc3)c(-c3ccccc3)c12)c1ccccc1`: the IC50 at EGFR (human) is 301 to 999 nM. With `C=CC(=O)N1CCc2c(sc3ncnc(N[C@H](CO)Cc4ccccc4)c23)C1`, the IC50 in assay [1] was less than 59 nM; in assay [2] it was 500 to 2500 nM; at EGFR (human), 301 to 999 nM. For `C=CC(=O)N1CCc2c(sc3ncnc(N[C@H](COCc4ccc(C(F)(F)F)cc4)c4ccccc4)c23)C1`, in that order: less than 59 nM, 10 to 499 nM and 100 to 300 nM. As to `C=CC(=O)Nc1cccc(-c2c(-c3ccccc3)oc3ncnc(N[C@H](COC(=O)C=C)c4ccccc4)c23)c1`, the IC50 in assay [1] is 101 to 900 nM; in assay [2], 10 to 499 nM. `CCN(CC)C/C=C/C(=O)N1CCc2c(sc3ncnc(N[C@H](CO)c4ccccc4)c23)C1`: the IC50 in assay [1] is less than 59 nM; in assay [2], 500 to 2500 nM; against EGFR (human), 1 to 99 nM. For `C=CC(=O)N1CCc2c(sc3ncnc(N[C@@H](CCO)c4ccccc4)c23)C1`, in that order: 101 to 900 nM, 500 to 2500 nM and 301 to 999 nM. Consider `COc1cccc(COC[C@@H](Nc2ncnc3sc4c(c23)CCN(C(=O)/C=C/CN(C)C)C4)c2ccccc2)c1`, for which the values for the IC50 (in assay [1]; in assay [2]; at EGFR (human)) were less than 59 nM, 500 to 2500 nM and 1 to 99 nM, respectively.

As to `CC(=O)Nc1ccc(-c2c(-c3ccccc3)oc3ncnc(N[C@H](CO)c4ccccc4)c23)cc1`, the IC50 in assay [1] is 60 to 100 nM; at EGFR (human) it was 100 to 300 nM. Turning to `OC[C@@H](Nc1ncnc2oc(-c3ccccc3)c(-c3ccoc3)c12)c1ccccc1`, the IC50 in assay [1] lay in the range of 101 to 900 nM; at EGFR (human), 100 to 300 nM. For the molecule `CC(=O)OC[C@@H](Nc1ncnc2oc(-c3ccccc3)c(Br)c12)c1ccccc1`, at EGFR (human), the IC50 is 301 to 999 nM. The same measure, in the same setting: then `CCOC(=O)/C=C/C(=O)N1CCc2c(sc3ncnc(N[C@H](CO)c4ccccc4)c23)C1`, with 1 to 99 nM. As to `C[C@@H](Nc1ncnc2sc3c(c12)CCN(C(=O)/C=C/CNN1CCCCC1)C3)c1ccccc1`, the results for the IC50 (in assay [1]; against EGFR (human)) were less than 59 nM and 1 to 99 nM, respectively. The molecule `O=C(O)[C@@H](Nc1ncnc2oc(-c3ccccc3)c(-c3ccccc3)c12)c1ccccc1` yielded an IC50 in assay [1] of less than 59 nM. `CN(C)C/C=C/C(=O)N1CCc2c(sc3ncnc(N[C@H](CCOCc4ccccc4F)c4ccccc4)c23)C1`: the IC50 is less than 59 nM in assay [1] and 1 to 99 nM on EGFR (human). Molecule `OC[C@@H](Nc1ncnc2sc3c(c12)CCC3)c1ccccc1` showed an IC50 on EGFR (human) of 301 to 999 nM. `OC[C@@H](Nc1ncnc2sc(-c3ccccc3)cc12)c1ccccc1` yielded an IC50 in assay [1] of 101 to 900 nM.

In turn, `O=C(O)[C@@H](Nc1ncnc2sc3c(c12)CCC3)c1ccccc1` gave an IC50 in assay [1] of 101 to 900 nM. Regarding `C=CC(=O)Nc1ccc(-c2c(-c3ccccc3)oc3ncnc(N[C@H](CO)c4ccccc4)c23)cc1`, the IC50 was in the range of 60 to 100 nM in assay [1] and 301 to 999 nM against EGFR (human). Regarding `CN(C)C/C=C/C(=O)N1CCc2c(sc3ncnc(N[C@H](COCc4cccnc4)c4ccccc4)c23)C1`, the IC50 in assay [1] was less than 59 nM; at EGFR (human) it was 1 to 99 nM. Consider `C=CC(=O)Nc1cccc(-c2cc3c(N[C@H](CO)c4ccccc4)ncnc3s2)c1`, for which the IC50 in assay [1] was less than 59 nM; on EGFR (human) it was 100 to 300 nM. For `C=CC(=O)Nc1cccc(-c2coc3ncnc(N[C@H](CO)c4ccccc4)c23)c1`, in that order: 60 to 100 nM and 301 to 999 nM. On the same counts, the results for `C=C(CN(C)C)C(=O)N1CCc2c(sc3ncnc(N[C@H](CO)c4ccccc4)c23)C1` are 101 to 900 nM and 1 to 99 nM. In the case of `CC[C@@H](Nc1ncnc2oc(-c3ccccc3)c(-c3ccccc3)c12)c1ccccc1`, at EGFR (human), the IC50 was in the range of 301 to 999 nM.

As for `Cc1sc2ncnc(N[C@H](CO)c3ccccc3)c2c1C`, the IC50 on EGFR (human) was 301 to 999 nM. With `COc1ccc(-c2c(-c3ccccc3)oc3ncnc(N[C@H](CO)c4ccccc4)c23)cc1`, the IC50 in assay [1] lay in the range of 101 to 900 nM; on EGFR (human) it was 100 to 300 nM. For `C=CC(=O)Nc1cccc(-c2c(-c3ccccc3)oc3ncnc(N(C)[C@H](COC)c4ccccc4)c23)c1`, the IC50 in assay [1] was 101 to 900 nM. Consider `O=C(O)[C@@H](Nc1ncnc2oc(-c3ccccc3)c(Br)c12)c1ccccc1`, for which the IC50 in assay [1] is less than 59 nM. For the molecule `CC(C)NC/C=C/C(=O)N1CCc2c(sc3ncnc(N[C@H](C)c4ccccc4)c23)C1`, the results for the IC50 (in assay [1]; against EGFR (human)) were 101 to 900 nM and 1 to 99 nM, respectively.
